Measured values: patent US9289003B2, “Use of compounds involved in biosynthesis of nucleic acids as cryoprotective agents” (CHR. HANSEN A/S, priority 2003, dated 2016)
“Also recorded” adds a separate entry of the source.

Columns and labels:
[1] = system: F-DVS™ CH-N 19 (frozen LD-culture); assay: Acidifying activity assay of frozen concentrated F-DVS CH-N 19 culture; type: cell-based; settings: Example 15; 1 day and 6 days at −50° C; 0,005% w/v inoculum, 6 hrs at 30° C; Na-formate 3% w/w
Protocol: The additives and concentrates were mixed for 30 minutes and subsequently 150 g of the two portions was frozen in liquid nitrogen. […] Culture activity in milk (heat sterilized LAB-milk) was measured.
The concentration of the various additives is given in the figures as % w/w per gram concentrated biomass.
Culture activity in milk (LAB-milk) was measured as acidification activity after 1 day (FIG. 13) and 6 days (FIG. 14) of storage at −50° C. The activity assay is based on a 0,005% w/v inoculum and 6 hrs incubation at 30° C.

bacterial cultures = assay: Cryoprotection of bacterial cultures, summary statements of the description; type: cell-based; settings: summary of the experiments (examples 12 and 15 cited for adenosine)
[2] = system: liquid lactic acid-bacterial starter culture concentrates; settings: 3% Na-formate; cited from earlier work
[3] = system: F-DVS™ Fl-Da N (frozen LD-culture); assay: Acidifying activity assay of frozen concentrated F-DVS Fl-Da N culture stored at −50° C; type: cell-based; settings: 3% w/w additive; for reduction in stability of culture without additive relative to culture stabilized by additive / loss of acidification activity of culture without additive: 13 days at −50° C; for reduction in stability of culture without additive relative to culture stabilized by additive: 0.01% inoculum, pH after 6 hrs at 30° C; for loss of acidification activity of culture without additive: corresponds to the pH difference; for ranking as cryoprotective during prolonged storage: storage extended to 21 or 49 days at −50° C
Protocol: In this example the stability measured by the acidification activity of a commercially produced LD-culture: F-DVS™ FI-Da N (Chr. Hansen A/S Item. No. 501691) was followed over a period of 6 months. The culture was produced and stored at −50° C. as described in the Materials and Methods section.
In contrast to what is common the first activity-measurement in this example was performed immediately after the culture were frozen as pellets in liquid nitrogen and followed by measurements after 1, 2, 12, 20 and 188 days of storage at −50° C.
(§1) The additive was added to the concentrate as a 30% sterile solution.
To simulate a situation similar to the industrial situation during the freezing process the additives and concentrates were mixed and stored for 5 hours at 8° C. and subsequently frozen in liquid nitrogen and further stored at −50° C. […] Culture activity in milk (LAB-milk) was measured the same day as the frozen cultures were formulated.
Culture activity in milk (LAB-milk) was measured the same day as the cultures were frozen and the activity was followed periodically up to 13 days.
Experimental details were as described in Example 10, with the exception that the activity was monitored for an extended period of time.

[4] = system: freeze-dried LD-culture of Fl-Da N; assay: Acidifying activity assay of freeze-dried Fl-Da N culture (FD-DVS); type: cell-based; settings: 3% w/w additive, 0.005% inoculum
Protocol: Frozen culture was inoculated on a 0.01% (w/w) level in 200 ml UHT-sterilized reconstituted skimmed milk (RSM) containing 9.5% (w/w) solid matter and heated at 99° C. for 30 minutes (LAB-milk). The RSM was incubated at 30° C. for 6 h to permit acidification of the substrate material. The acidification activity was measured as described in Example 6: Analytical Procedure QAm-052, “acidification activity—UHT”, Chr. Hansen A/S (Denmark).
as §1
To simulate the situation encountered in the industrial situation during a freezing process, the additives and concentrates were mixed and stored for 5 hours at 8° C. and subsequently frozen in liquid nitrogen and further stored at −50° C. for one day before freeze-drying. After freeze-drying was completed the culture was stored at −50° C. until analysis. […] Culture activity in milk (LAB-rnilk) was measured after 7 days of storage at −50° C.
This example describes the stability of freeze-dried LDultures (FD-DVS) of Fl-Da-N formulated with and without a number of different additives, which may act as cryprotective agents. In the experiments the.concentration of the various additives were 3% w/w per gram concentrated biomass unless other vice indicated in the figures.
After fermentation, biomass was harvested and concentrated via centrifugation from fermentation broth of Fl-Da N as described in the Materials and Method section. The cell concentrate was divided into a number of portions and was added to each of the portions. To simulate the situation encountered in the industrial situation during a freezing process, the additives and concentrates were mixed and stored for 5 hours at 8° C. and subsequently frozen in liquid nitrogen and further stored at −50° C. for one day before freezedrying. After freeze-drying was completed the culture was stored at −50° C. until analysis. […] Culture activity in milk (LAB-milk) was measured by the acidifying activity assay after 1 day and after 2 months of storage at −50° C.

SMILES	effect on activity/stability of frozen culture [1]	effectiveness as cryoprotective agent (bacterial cultures)	effect on stability of freeze-dried culture ([4]; 2 months of storage at −50° C)	other results
Nc1ncnc2c1ncn2[C@@H]1O[C@H](COP(=O)(O)O)[C@@H](O)[C@H]1O [AMP, adenosine-5′-monophosphate]	harmful to the activity of the culture	but not AMP is effective as a cryoprotective agent		
O=C[O-].[Na+] [Na-formate]	detrimental for frozen cultures; also recorded: detrimental to the activity of frozen cultures; also recorded: decrease the storage stability of frozen lactic acid bacterial starter culture			effect on storage stability of liquid starter culture concentrates [2]: effective to increase the storage stability of liquid lactic acid-bacterial starter culture concentrates
OC[C@H]1O[C@@H](n2cnc3c(O)ncnc32)[C@H](O)[C@@H]1O [Inosine, inosine]		very effective as a cryoprotective agent		reduction in stability of culture without additive relative to culture stabilized by additive [3]: 0.41 pH units; loss of acidification activity of culture without additive [3]: 60%; ranking as cryoprotective during prolonged storage [3]: better cryoprotective of F-DVS™ FI-Da N than GMP; effect on stability of freeze-dried culture ([4]; one day of storage at −50° C): highly efficient to ensure stability of the culture
Nc1nc2c(ncn2[C@@H]2O[C@H](COP(=O)(O)O)[C@@H](O)[C@H]2O)c(=O)[nH]1 [GMP, guanosine-5′-monophosphate]				reduction in stability of culture without additive relative to culture stabilized by additive [3]: 0,31 pH units; loss of acidification activity of culture without additive [3]: 50%; ranking as cryoprotective during prolonged storage [3]: better that IMP
O=c1ccn([C@@H]2O[C@H](COP(=O)(O)O)[C@@H](O)[C@H]2O)c(=O)[nH]1 [UMP, uranosine-5′-monophosphate]			preferred	
Nc1ncnc2c1ncn2[C@@H]1O[C@H](CO)[C@@H](O)[C@H]1O [adenosine, reference compound]	harmful to the activity of the culture	appears to decrease the stability of bacterial cultures	harmful to the culture	effect on stability of freeze-dried culture ([4]; one day of storage at −50° C): highly efficient to ensure stability of the culture
Nc1ccn([C@@H]2O[C@H](COP(=O)(O)O)[C@@H](O)[C@H]2O)c(=O)n1 [CMP, cytidine-5′-monophosphate]			preferred	
